Common to all, as to experiment: relative viability (nuclei count vs DMSO), 5 days (fraction); higher = more cells survive
Compound in one test: CS(=O)(=O)c1ccc(-c2cnc(N)c(C(=O)Nc3ccccc3)n2)cc1 [VE-821]
The essentials: (§1)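 Lung cancer cell lines in 1536-well plates were exposed by pinning to five library-drug doses (not always all listed) √10 apart, following an overnight hold at 37 °C. MetaXpress counted Hoechst-stained nuclei from 4× images taken after 5 days without medium change. Viability is the median ratio of treated-well to vehicle-well nuclei across plates. Plates required control CV below 25% and at least one doubling.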

Compound in a further test: CS(=O)(=O)c1ccc(C(=O)Nc2ccc(Cl)c(-c3ccccn3)c2)c(Cl)c1 [Vismodegib]
The procedure, abridged:
as §1

Compound in another test: N#CC[C@H](C1CCCC1)n1cc(-c2ncnc3[nH]ccc23)cn1 [Ruxolitinib]
The essentials:
as §1

Compound in the test “Ruxolitinib + Phenformin”: N#CC[C@H](C1CCCC1)n1cc(-c2ncnc3[nH]ccc23)cn1 [Ruxolitinib] + N=C(N)NC(=N)NCCc1ccccc1 [Phenformin] (partner 250 µM)
The procedure, abridged: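 For relative viability, nuclei counts in treated wells were divided by those in vehicle wells. Lung cancer cell lines had been pin-tool dosed in 1536-well plates the day after seeding and cultured for 5 days, then fixed and stained in one step (final 0.05% Triton X-100, 1% formaldehyde, 1 ug/ml Hoechst) and imaged at 4×. Doses were one drug alone or a fixed anchor-drug dose plus five library-drug doses (not always all listed) in √10 steps, and values are duplicate-plate medians.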

In the case of UMC-11, the relative viability is 1.08 with VE-821 (0.08 µM); 0.915 with VE-821 (0.253 µM); 0.948 with VE-821 (0.8 µM); 1.04 with VE-821 (2.53 µM); 0.531 with VE-821 (8 µM); 0.897 with Vismodegib (0.08 µM). Moreover, the relative viability was 0.919 in the test with Vismodegib (0.253 µM); 1 in the test with Vismodegib (0.8 µM); 0.947 with Vismodegib (2.53 µM); 0.834 with Vismodegib (8 µM); 0.954 with Ruxolitinib (0.08 µM); 0.999 with Ruxolitinib (0.253 µM). Besides, the relative viability was determined as 1.1 in the test with Ruxolitinib (0.8 µM); 1.13 in the test with Ruxolitinib (2.53 µM); 1.04 in the test with Ruxolitinib (8 µM); 0.344 in the test with Ruxolitinib + Phenformin (first compound 0.08 µM); 0.326 with Ruxolitinib + Phenformin (first compound 0.253 µM); 0.356 with Ruxolitinib + Phenformin (first compound 0.8 µM). For the same cell line, the relative viability with Ruxolitinib + Phenformin (first compound 2.53 µM) was 0.279; with Ruxolitinib + Phenformin (first compound 8 µM) it was 0.257.

The values are drawn from the supplement of paper PMC10307832.
